Assay results reported in patent US9163027B2, “Substituted triazolo-pyrimidine compounds for modulating cell proliferation differentiation and survival” (STATegics, Inc., priority 2012, dated 2015).

Key:
PC12 cells = experiment: PC12 cell survival under serum deprivation (CellTiter-Glo); type: cell-based, rat; conditions: 72 h serum-free; for minimal effective concentration: Rattus norvegicus, PC-12, read-out: PC12 cell proliferation (CellTiter-Glo ®) Concentration at which RLU increased >25% compared to medium control
Description: Each culture condition was performed in quadruplicate in each experiment and the mean values were calculated. The results represent mean±SEM of relative light unit values when compared to the mean values obtained in the presence of the medium alone. A total of 13 experiments were performed and the statistical significance was analyzed using GraphPad Prism software using ANOVA, followed by paired t-test. The symbol * indicates P-values <0.01.
PC12 cells were cultured in DMEM supplemented with 10% fetal calf serum and 5% horse serum. […] Cell viability was analyzed by CellTiter-Glo® reagent (Promega).
PC12 cells were cultured in DMEM supplemented with 10% fetal calf serum and 5% horse serum. […] Cell survival of the serum-starved cells was analyzed by CellTiter-Glo® reagent luminescence reading.
FIG. 2 illustrates neuroprotective effects of Compounds 1-5 when tested in PC12 cell protection assays. PC12 cells were subjected to serum deprivation as described under FIG. 1.
PC12 cells were cultured in DMEM supplemented with 10% fetal calf serum and 5% horse serum. […] Cell survival of the serum-starved cells was analyzed by CellTiter-Glo® reagent luminescence reading (relative light units, “RLU”). […] “NS” indicates RLU increased <25% when compounds were tested at 5 uM.

[1] = tested on: rat ventral mesencephalic dopaminergic neurons; experiment: Protection of primary dopaminergic neurons from 6-OHDA (THir neuron staining); type: cell-based; conditions: 6.25 uM 6-OHDA 40 min, FIG. 7
Description: Dissociated embryonic D14 rat ventral mesencephalic cells were used.
Dopaminergic neurons play a key role in the pathogenesis of Parkinson's disease and compounds enhancing survival of these cells have significant therapeutic potential. Dissociated embryonic D14 rat ventral mesencephalic cells were used to test the potential of EPO mimetic compounds to protect primary dopaminergic neurons. […] The cells were plated in 48-well poly-D-lysine coated plates using a microisland technique. The microislands were seeded into dry plates in 10 uL aliquots of 3000 cells/uL and incubated at 37° C. for 1 h to allow for adhesion. […] On day 3, the medium was replaced with 6.25 uM 6-hydroxydopamine (6-OHDA, Sigma) for a 40 minute incubation. The toxin was then removed and the cells were cultured for an additional 2 days. On day 5, the cells were fixed, permeabilized and stained for tyrosine hydroxylase-immunoreactive (THir) neurons.

[2] = tested on: human CD34+ hematopoietic stem cells; experiment: Proliferation and differentiation of primary human CD34+ cells; type: cell-based
Description: Compound 10 was tested at different concentrations for its ability to induce proliferation and differentiation of human CD34+ hematopoietic stem cells. Human CD34+ cells were purified by (FIG. 6A) immunomagnetic beads (>90% purity, purchased from Stem Cell Technologies) or (FIG. 6B) cell sorting (at Blood Systems Research Institute) and the cells were cultured in the presence of compounds for eight (FIG. 6A) or eleven (FIG. 6B) days. (FIG. 6A) The level of cell growth and survival was measured based on ATP levels (CellTiterGlo reagent), or (FIG. 6B) the expression level of CD235a was analyzed by flow cytometry as a marker for cell maturation. Cell survival was analyzed using the CellTiterGlo reagent to measure ATP levels as a marker of metabolically active cells that have not undergone apoptosis, and expression of CD235a as a marker of erythroid cell differentiation and as a specific marker for EPO-like erythropoietic activity.

primary human neurons = experiment: Neuroprotection of primary human neurons against staurosporine; type: cell-based; conditions: 47 days in culture, compound 24 h, then staurosporine 500 nM 24 h, FIG. 3B
Description: A) Primary rat cortical neurons were isolated from micro-surgically dissected regions of day 18 embryonic rat brain (Brain Bits, LLC, Springfield, Ill.) and cultured for 12 days in vitro. Then, Compounds 5-7 were added for 24 h. Next, NMDA (50 uM) was added and the cells were cultured for an additional 24 hours. Cells cultured without the insult were considered to represent 0% neuron death. The data represent mean±SEM of six replicate cultures and * indicates P value ≦0.05. B) Primary micro-dissected fetal brain tissue was obtained from a commercial source (Advanced Bioscience Resources, Inc., Alameda, Calif.). […] Staurosporine (500 nM) was added and the cells were cultured for an additional 24 hours. Cells cultured without the insult were considered to represent 0% neuron death. The data represent mean±SEM of six replicate cultures and * indicates P value ≦0.05.

frataxin [3] = experiment: Frataxin protein levels in primary human fetal neurons (ELISA); type: cell-based; conditions: 28 days in culture, 24 h incubation, FIG. 4B
Description: The effects of the compounds on frataxin protein levels in cells were analyzed. […] Embryonic mouse cell line P19 was differentiated into neuronal cells in the presence of retinoic acid and frataxin levels were measured (FIG. 4A). Frataxin levels were measured after 24 h by multi-species frataxin-ELISA (MitoSciences) and compared to total protein levels. The data represent mean±SEM. Primary human fetal neurons (28 days in culture) were also incubated for 24 h in the presence of the compounds, and human frataxin levels were measured by ELISA (MitoSciences) and compared to total protein levels (FIG. 4B). The data represent mean±SEM of triplicate measurements. Compounds were also tested for their effects on frataxin levels in cells derived from patients with FRDA. Cultures of patient peripheral blood mononuclear cells (PBMCs) were also used to test the EPO mimetic compounds for frataxin enhancement in frataxin-deficient cells. Compound 1 and Compounds 5-6 enhanced frataxin levels in these patient cells at concentration 1 uM or lower.

EPO receptor [4] = molecular target: T1, EPO receptor (Homo sapiens, UniProt P19235); experiment: EPO receptor phosphorylation in primary human fetal neural cells (phospho-EPOR ELISA); type: cell-based; conditions: FIG. 5A; for EPO receptor phosphorylation: 10 min incubation; for level of receptor activation compared with recombinant human EPO: recombinant human EPO 10 IU/ml
T1 construct: endogenous in cells; host or cells: primary human fetal neural cells cultured from micro-dissected fetal brain tissue (Advanced Bioscience Resources, Inc.)
T1 sequence (P19235 25-508): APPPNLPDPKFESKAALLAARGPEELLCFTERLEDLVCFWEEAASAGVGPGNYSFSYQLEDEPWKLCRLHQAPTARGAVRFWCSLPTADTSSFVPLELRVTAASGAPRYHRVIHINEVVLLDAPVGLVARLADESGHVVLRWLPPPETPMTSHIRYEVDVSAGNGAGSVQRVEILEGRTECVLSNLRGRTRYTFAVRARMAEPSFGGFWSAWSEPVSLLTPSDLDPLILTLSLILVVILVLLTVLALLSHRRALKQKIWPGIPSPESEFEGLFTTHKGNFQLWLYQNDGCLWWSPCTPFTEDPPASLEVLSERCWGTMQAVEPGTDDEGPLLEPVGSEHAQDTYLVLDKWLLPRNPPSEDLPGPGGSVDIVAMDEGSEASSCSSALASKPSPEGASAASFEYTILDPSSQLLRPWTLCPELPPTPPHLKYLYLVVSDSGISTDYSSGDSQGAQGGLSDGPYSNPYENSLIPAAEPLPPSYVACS
Description: (§1) Primary micro-dissected fetal brain tissue was obtained from a commercial source (Advanced Bioscience Resources, Inc., Alameda, Calif.). Cultured primary human fetal neural cells (3 h, 1 day, 17 days, or 26 days in culture) were incubated with Compound 5, Compound 6, or controls for 10 min (FIG. 5A). Phospho-EPOR was detected by ELISA (R&D Systems). […] Human erythropoietic cell line TF-1 was cultured for 10 min in the presence of Compound 5, Compound 6, or the controls, and phospho-EPOR was detected by ELISA (R&D Systems). The data represent mean±SEM of triplicate cultures. […] The receptor activation results were consistent with functional cell based assays using primary human CD34+ bone marrow progenitor cells and erythroleukemia cell line TF-1.

EPO receptor [5] = experiment: EPO receptor phosphorylation in erythroleukemia cell line TF-1 (phospho-EPOR ELISA); type: cell-based, human; conditions: TF-1, 10 min, FIG. 5B
Description: as §1

TF-1 cells = experiment: Proliferation of TF-1 cells; type: cell-based, human; conditions: at concentrations that provided significant neuroprotective effects
rats [6] = experiment: Kidney and CNS protection against DMA + Cremophor EL toxicity in rats; type: in vivo, rat; conditions: DMA + CrEL 2.5 mL/kg each IP
Description: High-dose N,N-dimethylacetamide (DMA)+Cremophor EL (CrEL) (2.5 mL/kg each, IP) was used to induce acute CNS and organ toxicity, and the potential of Compound 5 to protect the rats was studied.

rats [7] = conditions: rat model of MCA occlusion (Brines et al. 2000); cited from earlier work
frataxin [8] = conditions: 8 FRDA patients, open label pilot trial (Boesch et al. 2008); cited from earlier work
frataxin [9] = conditions: patients with chronic kidney disease, rhEPO infusion for anemia (Sturm et al. 2005); cited from earlier work
[10] = human, intravenous administration (Xenocostas et al. 2005); cited from earlier work
[11] = NS = RLU increased <25% at 5 uM

Row | Compound | minimal effective concentration (PC12 cells; [11]) [µM] | neuroprotective effect (neuron death) (primary human neurons) | frataxin protein levels (frataxin [3]) | EPO receptor phosphorylation (EPO receptor [4]) | level of receptor activation compared with recombinant human EPO (EPO receptor [4]) | EPO receptor activation (phospho-EPOR) (EPO receptor [5]) | proliferation of TF-1 cells (TF-1 cells) | further results
1 | Cc1cc(C)n2nc(SCCOc3ccc(Cl)cc3)nc2n1 [Example 1, 2-{[2-(4-chlorophenoxy)ethyl]sulfanyl}-5,7-dimethyl-[1,2,4]triazolo[1,5-a]pyrimidine] | < 5 |  |  |  |  |  |  | protection of PC12 cells (cell viability) (PC12 cells; 1 uM, FIG. 1, at least comparable to rhEPO): significant effect; level of protection of PC12 cells compared with rhEPO (PC12 cells; 5 uM vs rhEPO 10 U/ml, FIG. 1): higher level of protection than rhEPO; protection of dopaminergic neurons from 6-OHDA toxicity ([1]; 1 uM): significantly protected
2 | COc1ccc(NC(=O)CSc2nc3nc(C)cc(C)n3n2)cc1 [Example 10, 2-({5,7-dimethyl-[1,2,4]triazolo[1,5-a]pyrimidin-2-yl}sulfanyl)-N-(4-methoxyphenyl)acetamide] |  |  |  |  |  |  |  | PC12 cell proliferation (CellTiter-Glo ®) Concentration at which RLU increased >25% compared to medium control (PC12 cells; [11]): NS (RLU increased <25% when compounds were tested at 5 uM); CD34+ progenitor cell proliferation (ATP levels, CellTiterGlo) ([2]; eight days culture, FIG. 6A): dose-dependent induction of CD34+ progenitor cell proliferation; differentiation into erythroid cells (CD235a expression, flow cytometry) ([2]; eleven days culture, FIG. 6B): differentiation into erythroid cells expressing CD235a
3 | Cc1cc(C)n2nc(OCCOc3ccc(Cl)cc3)nc2n1 [Example 11, 2-[2-(4-chlorophenoxy)ethoxy]-5,7-dimethyl-[1,2,4]triazolo[1,5-a]pyrimidine] | < 5 | Significant protective effects | increased frataxin protein levels | increased EPO receptor phosphorylation in a dose-dependent manner | comparable to that induced by recombinant human EPO | did not activate EPO receptor | did not induce proliferation | CNS toxicity of DMA/CrEL (rats [6]): prevented the CNS toxicity; response of the rats to formalin injection (rats [6]): normalized the response; kidney-protective effects measured by hypoproteinemia in serum (rats [6]; FIG. 8): Kidney-protective effects
4 | Cc1cc(C)n2nc(OCCN(CCO)c3ccccc3)nc2n1 [Example 13, 2-{[2-({5,7-Dimethyl-[1,2,4]triazolo[1,5-a]pyrimidin-2-yl}oxy)ethyl](phenyl)amino}ethan-1-ol] | < 5 | Significant protective effects | increased frataxin protein levels | increased EPO receptor phosphorylation in a dose-dependent manner | comparable to that induced by recombinant human EPO | did not activate EPO receptor | did not induce proliferation | 
5 | rhEPO: recombinant human (rh)EPO, erythropoietin; positive control |  |  |  |  |  | effective |  | protection of dopaminergic neurons from 6-OHDA toxicity ([1]; 10 IU/ml): significantly protected; reduction of infarct volume (rats [7]): 50-75%; increase in frataxin in lymphocytes (frataxin [8]): 24%; increase in frataxin levels in peripheral blood mononuclear cells (frataxin [9]): 2-3 fold; concentration in cerebrospinal fluid lower than in circulation [10]: more than 1000 fold
